From patent US9340577B2, “HLA binding motifs and peptides and their uses” (priority 1992, dated 2016) come the findings set out here.

For test [1], the system named is DQB1*0301. It counts as binding, human. The following applies: read-out: DQB1*0301.
Test [2] concerns the target B*0702 (B*0701) (Homo sapiens, UniProt P01889). As to the kind of experiment: biochemical. Format: binding.
The target in test [3] is B*3502 (Homo sapiens, UniProt P01889, A329T/A93T/A95T/C349S/D138N/D201E/D98Y/E176V/E187L/E204Q/E69T/I218V/K202T/L119I/L133F/Q94N/R155S/R180L/S121R/S35A/S48A/T118I/V127L/V306I/V36M/Y91F). As to the kind of experiment: biochemical. Format: binding.
Test [4] deals with B*3503 (Homo sapiens, UniProt P01889, A329T/A93T/A95T/C349S/D201E/D98Y/E176V/E187L/E204Q/E69T/I218V/K202T/L119I/Q94N/R155S/R180L/S121R/S35A/S48A/T118I/V127L/V306I/V36M/Y140F/Y91F). In words: biochemical. It counts as binding.
For test [5], the target named is B*5401 (B54) (Homo sapiens, UniProt P01889, A329T/C349S/D138N/D201E/E176V/E187T/E204Q/E69G/I76V/K202T/L119W/R155S/R180L/S121T/S35A/S48A/V127L/V306I/V36M/Y140L). The following applies: read-out: BINDING CAPACITY (IC50 nM) B*5401.
In test [6] the target is B*3501 (Homo sapiens, UniProt P01889, A329T/A93T/A95T/C349S/D201E/D98Y/E176V/E187L/E204Q/E69T/I218V/K202T/L119I/Q94N/R155S/R180L/S121R/S35A/S48A/T118I/V127L/V306I/V36M/Y140S/Y91F). In words: biochemical.
Test [7] has as its target DR1 (DRB1*0101) (Homo sapiens, UniProt P01903+P01911, A100R/D57E/F55L/F60I/F76Y/I96L/L162R/M171V/P40L/Q125E/R42F/V115G/Y59C). In words: biochemical. Format: binding. The following applies: read-out: DRB1*0101.
Test [8] deals with DR4w4 (DRB1*0401) (Homo sapiens, UniProt P01903+P01911, A100K/A169T/F76Y/I96L/K127E/L162R/M171V/N62H/P40V/Q125Y/R42H/S133A/S149N/S66Y/V115G/V209L/W38E). In words: biochemical. It counts as binding. The following applies: read-out: Binding affinity DRB1 *0401.
For test [9], the target named is DR7 (DRB1*0701) (Homo sapiens, UniProt P01903+P01911, A100R/A102G/A103Q/D57E/D86V/E43K/F76Y/K127E/L162R/M171V/P40G/Q125H/Q99D/R33Q/R42Y/R54Q/S133A/S66F/T210M/V115G/Y107V/Y59L/Y89S). As to the kind of experiment: biochemical. It counts as binding. The following applies: read-out: DRB1*0701.
In test [10] the target is DRB1*0802 (Homo sapiens, UniProt P01903+P01911, A100R/A103L/A169T/F76Y/H45Y/I96F/K41T/L162R/M171V/P40S/Q125H/Q178H/Q39Y/Q99D/R218S/R42G/S66Y/V115G/W38E). In words: biochemical. It counts as binding. The following applies: read-out: DRB1*0802.
Test [11] concerns the target DRB1*0901 (Homo sapiens, UniProt P01903+P01911, A100R/A103E/D57H/D86V/F55Y/F60I/F76Y/I96F/K127E/L162R/M171V/P40D/Q125H/Q99R/R33Q/R42F/S133A/S66N/T210M/V115G/W38K/Y107V/Y59G/Y89S). In words: biochemical. Format: binding. The following applies: read-out: DRB1*0901.
For test [12], the target named is DRB1*1302 (Homo sapiens, UniProt P01903+P01911, A100E/A169T/K41T/L162R/M171V/P40S/Q125H/Q178H/Q39Y/Q99D/R42S/S66N/T262R/V115G/W38E/Y61H). As to the kind of experiment: biochemical. It counts as binding. The following applies: read-out: DRB1*1302.
Test [13] concerns the target DRB1*1501 (Homo sapiens, UniProt P01903+P01911). In words: biochemical. It counts as binding. The following applies: read-out: Binding affinity DRB1 *1501.
The target in test [14] is DRB3*0101 (Homo sapiens, UniProt P01903+P79483). In words: biochemical. It counts as binding. The following applies: read-out: DRB3*0101.
Test [15] concerns the target DRB4*0101 (Homo sapiens, UniProt P01903+P13762, G164S). In words: biochemical. It counts as binding. The following applies: read-out: Binding affinity DRB4 *0101.
Test [16] addresses DRB5*0101 (Homo sapiens, UniProt P01903+Q30154). The following applies: read-out: Binding affinity DRB5 *0101.
Test [17] has as its system A02 supertype. It counts as binding, human.
In test [18] the target is B*4501 (Homo sapiens, UniProt P01889, A329T/A65T/A93T/A95T/C349S/D138N/D201E/D98Y/E176V/E187L/E204Q/E69K/H137Y/K202T/L119W/N87E/Q56L/Q94N/R155S/R180D/S121R/S35A/S48T/V127L/V306I/V36M/W191S/Y140L/Y33H/Y91S). As to the kind of experiment: biochemical. Format: binding.
Test [19] has as its system DR2. The following applies: read-out: binding affinity for DR2.
The test system of test [20] is DR5. The following applies: read-out: binding affinity for DR5.
Test [21] relates to A01 supertype. It counts as binding, human.
Test [22] addresses B*0801 (Homo sapiens, UniProt P01889, A93T/A95T/D138N/E176V/E187T/K202T/Q94N/R180D/S35A/V36M/Y33D/Y91F). The following applies: read-out: IC50 for B*0801.
Test [23] deals with HLA-A11 (A*1101) (Homo sapiens, UniProt P04439, A114D/D185E/E176A/F33Y/L180Q/S129P/T187R). As to the kind of experiment: biochemical. Format: binding.
In test [24] the target is A31 (A*3101) (Homo sapiens, UniProt P04439, A270S/D185E/E176V/E277Q/F33T/G231S/G80R/H175R/I121M/I218V/I322F/K168Q/L300P/L318F/M331R/P217A/Q94H/R138Q/T323A/T345S/T97I/V358M). As to the kind of experiment: biochemical. It counts as binding.
Test [25] deals with A*3301 (Homo sapiens, UniProt P04439, A270S/D185E/E176V/E277Q/E87N/F33T/G231S/H175R/I121M/I218V/I322F/K168Q/K210R/L300P/L318F/M331R/P217A/Q86R/Q94H/R138Q/T323A/T345S/T97I/V358M/Y195H). As to the kind of experiment: biochemical. Format: binding.
Test [26] concerns the target A*6801 (Homo sapiens, UniProt P04439, A269V/D185E/E176V/E277Q/E87N/F33Y/G231S/I121M/I166T/I218V/L180W/L300P/L318F/N151K/P208A/P217A/Q86R/R169H/T345S). As to the kind of experiment: biochemical. It counts as binding.
Test [27] has as its target HLA-A1 (A*0101) (Homo sapiens, UniProt P04439, A114D/A174V/A182V/D101N/D185E/E176A/E190D/L180R/Q94H/R68K/S129P/T187R/V100A/V91M/W191G). As to the kind of experiment: biochemical. It counts as binding.
For test [28], the system named is A03/11 supertype. It counts as binding, human.
Test [29] concerns the target A*2601 (Homo sapiens, UniProt P04439, A114D/A173T/A270S/D101N/D185E/E277Q/E87N/F33Y/G231S/I121R/I218V/K168Q/L180W/L300P/L318F/P208A/P217A/Q86R/Q94H/R138Q/S129P/T187R/T323A/T345S/V100A/V358M). As to the kind of experiment: biochemical. Format: binding.
The target in test [30] is A*2902 (Homo sapiens, UniProt P04439, A270S/D101N/D185E/E176V/E277Q/E87Q/F33T/G231S/H175R/I121M/I218V/I322F/K168Q/L300P/L318F/M331R/P208A/P217A/Q86L/T323A/T345S/V100A/V358M). As to the kind of experiment: biochemical. Format: binding.
For test [31], the target named is A*3002 (Homo sapiens, UniProt P04439, D101N/D140H/D185E/E176R/F33S/G80R/H175R/K168Q/Q94H/R138E/R41S/V100E). As to the kind of experiment: biochemical. Format: binding.

Residues, ends and D or L forms follow the SMILES beside them. No end group written: not given here.

Turning to “736.02 (YAAAAAAKAAA; also: non-natural residue (44)) [Peptide 736.02]”, the IC50 in test [1] turned out to be 0.026 µM.
With `CC(C)C[C@H](NC(=O)[C@H](C)NC(=O)[C@@H](NC(=O)[C@H](CC(C)C)NC(=O)[C@H](C)NC(=O)[C@@H](NC(=O)[C@@H](NC(=O)[C@H](CCCNC(=N)N)NC(=O)[C@@H]1CCCN1C(=O)[C@H](C)N)[C@@H](C)O)C(C)C)[C@@H](C)O)C(=O)O` [APRTVALTAL], the IC50 was 0.0042 µM in test [2]; above 30 µM in test [3]; above 30 µM in [4]; 17300 nM in test [5]; above 30 µM in [6].
Regarding `CSCC[C@H](NC(=O)[C@H](Cc1ccccc1)NC(=O)[C@H](CCCCN)NC(=O)[C@@H](NC(=O)[C@@H](NC(=O)[C@H](CCCCN)NC(=O)[C@H](CCC(N)=O)NC(=O)[C@@H]1CCCN1C(=O)[C@H](Cc1c[nH]cn1)NC(=O)[C@@H](NC(=O)[C@H](CCC(N)=O)NC(=O)[C@H](C)NC(=O)[C@@H](N)CS)C(C)C)C(C)C)[C@@H](C)O)C(=O)N[C@@H](CC(C)C)C(=O)N[C@@H](CS)C(=O)O` [Peptide 68.0078], the IC50 came out at 10.2 µM in [7]; 2.57 µM in [8]; 32.3 µM in test [9]; 8.73 µM in test [10]; 34.9 µM in [11]; 2.19 µM in test [12]. Moreover, the IC50 in test [13] is 0.809 µM; in test [14], above 13.5 µM; in [15], 0.604 µM; in test [16] it was 1.23 µM.
Turning to `CC[C@H](C)[C@H](NC(=O)[C@H](CS)NC(=O)[C@@H](NC(=O)[C@@H](N)Cc1ccc(O)cc1)[C@@H](C)O)C(=O)N[C@@H](CC(=O)O)C(=O)NCC(=O)N[C@@H](CCC(N)=O)C(=O)N[C@@H](CS)C(=O)N[C@H](C(=O)N[C@H](C(=O)O)C(C)C)[C@@H](C)O` [Peptide 1593.58] (H-YTCIDGQCTV-OH), in test [17], the Degeneracy was determined as 3.
For the compound `CC[C@H](C)[C@H](NC(=O)[C@@H](NC(=O)[C@H](CS)NC(=O)[C@@H](NC(=O)[C@@H]1CCCN1C(=O)[C@@H]1CCCN1C(=O)[C@H](CCC(N)=O)NC(=O)[C@@H]1CCCN1C(=O)[C@H](CC(C)C)NC(=O)[C@H](CCCNC(=N)N)NC(=O)[C@H](CCC(=O)O)NC(=O)CN)[C@@H](C)CC)[C@@H](C)O)C(=O)O` [Peptide 9002.0346], in test [18], the IC50 amounted to 0.0025 µM.
Take `CC[C@H](C)[C@H](NC(=O)CNC(=O)[C@@H](NC(=O)[C@H](Cc1ccccc1)NC(=O)[C@H](CCCCN)NC(=O)[C@H](CO)NC(=O)[C@H](CC(N)=O)NC(=O)[C@H](C)NC(=O)[C@H](CCCCN)NC(=O)[C@@H](NC(=O)[C@H](Cc1ccc(O)cc1)NC(=O)[C@@H](N)CCC(N)=O)[C@@H](C)CC)[C@@H](C)CC)C(=O)N[C@H](C(=O)N[C@@H](CCC(=O)O)C(=O)O)[C@@H](C)O` [TT830-843]: the IC50 in [19] and in test [20] was 0.01 to 0.1 µM throughout.
AFKDLFVVY had a Degeneracy in test [21] of 2.
As to FLKDYQLL [HIV gp 586-593 Y1>F, Q5>Y], in test [22], the IC50 turned out to be 0.014 µM.
Regarding HIGPGRAFY [Peptide 1595.03], the IC50 worked out at 0.691 µM in test [23]; 1.42 µM in test [24]; 4.5 µM in test [25]; 0.029 µM in [26]; 1.31 µM in test [27]; 0.058 µM in [29]. For the same compound, the IC50 turned out to be 0.157 µM in test [30] and 0.011 µM in test [31]. Moreover, the figures for the Degeneracy in [21] and in test [28] were 3 and 2, respectively.
Take HTQELFISNIV [Peptide 9013.0316]: in test [17], the Degeneracy is 1.
With LTISYGRKK [Peptide 66.0060], the Degeneracy in test [28] turned out to be 2.
